According to US20080255158A1, “Fungicidal Mixtures” (BASF Aktiengesellschaft, priority 2004, published 2008):

Tested on: Cochliobolus miyabeanus
Assay: Activity against brown spot of rice caused by Cochliobolus miyabeanus, protective application
Type: in vivo
Conditions: individual active compound, 16 ppm in the spray liquor, rice leaves, 6 days after inoculation
Procedure: The active compounds, separately or jointly, were prepared as a stock solution comprising 0.25% by weight of active compound in acetone or DMSO. 1% by weight of the emulsifier Uniperol® EL (wetting agent having emulsifying and dispersing action based on ethoxylated alkylphenols) was added to this solution, and the mixture was appropriately diluted with water to the desired concentration.
Use example—Activity against brown spot of rice caused by Cochliobolus miyabeanus, protective application
Leaves of rice seedlings of the cultivar “Tai-Nong 67” which had been grown in pots were sprayed to runoff point with an aqueous suspension having the concentration of active compound stated below. The next day, the plants were inoculated with an aqueous spore suspension of Cochliobolus miyabeanus. The test plants were then placed in climatized chambers at 22-24° C. and 95-99% relative atmospheric humidity for 6 days. The extent of the development of infection on the leaves was then determined visually.
Evaluation is carried out by determining the infected leaf areas in percent. These percentages were converted into efficacies.
The efficacy (E) is calculated as follows using Abbot's formula: […]
The expected efficacies of the mixtures of active compounds are determined using Colby's formula [R. S. Colby, Weeds, 15, 20-22 (1967)] and are compared with the observed efficacies. […]

CC1CCN(c2c(-c3c(F)cc(F)cc3F)c(Cl)nc3ncnn23)CC1 [compound I, 5-chloro-7-(4-methylpiperidin-1-yl)-6-(2,4,6-trifluorophenyl)[1,2,4]tri-azolo[1,5-a]pyrimidine]
Efficacy in % of the untreated control: 54%
